A short description of data set [1]: Apparent permeability of the compound. Format: physicochemical. As to conditions: not told.
Data set [2] addresses T1, G-protein coupled receptor 39 (Homo sapiens, UniProt O43194).
T1 sequence (O43194 whole entry): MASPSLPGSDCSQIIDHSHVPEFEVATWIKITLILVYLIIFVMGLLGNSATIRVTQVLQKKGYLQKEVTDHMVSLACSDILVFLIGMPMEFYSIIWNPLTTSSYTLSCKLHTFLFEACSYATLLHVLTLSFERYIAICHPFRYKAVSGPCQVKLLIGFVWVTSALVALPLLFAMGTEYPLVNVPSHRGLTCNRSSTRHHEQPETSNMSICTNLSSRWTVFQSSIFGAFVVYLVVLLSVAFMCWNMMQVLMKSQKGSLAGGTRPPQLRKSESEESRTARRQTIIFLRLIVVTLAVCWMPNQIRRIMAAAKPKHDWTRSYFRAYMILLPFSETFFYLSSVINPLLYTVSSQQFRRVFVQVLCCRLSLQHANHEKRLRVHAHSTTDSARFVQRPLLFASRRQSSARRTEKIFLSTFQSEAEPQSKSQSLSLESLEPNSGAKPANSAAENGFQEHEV
Kind of data set: Agonist activity at recombinant human GPR39 expressed in CHO-K1 cells assessed as increase of Zn2+-induced cAMP production preincubated for 30 mins measured after 60 mins. Format: functional, cell-based.

For data set [3], the target named is T1, G-protein coupled receptor 39. Kind of data set: Agonist activity at recombinant human GPR39 expressed in CHO-K1 cells assessed as increase of Zn2+-induced intracellular Ca+2 mobilization after 1 hr by Fluo-4 No staining-based FLIPR assay. Format: cell-based.
For data set [4], the target named is T2, Protein Gpr39 (Rattus norvegicus) (UniProt A6QR73).
T2 sequence (whole entry): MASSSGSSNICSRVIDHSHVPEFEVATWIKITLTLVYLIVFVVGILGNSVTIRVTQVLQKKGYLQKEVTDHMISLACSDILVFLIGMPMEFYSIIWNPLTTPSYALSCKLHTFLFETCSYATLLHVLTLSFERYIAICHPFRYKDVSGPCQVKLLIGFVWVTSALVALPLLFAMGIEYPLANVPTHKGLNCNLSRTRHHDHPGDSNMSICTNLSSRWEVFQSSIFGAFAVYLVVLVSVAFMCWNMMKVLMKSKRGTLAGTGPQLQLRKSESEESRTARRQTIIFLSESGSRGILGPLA
Kind of data set: Agonist activity at GPR39 in rat INS-1 cells assessed as effect on glucose-stimulated insulin secretion. The data set is classed as cell-based. As to conditions: INS1.

Data set [5] addresses T3, G-protein coupled receptor 39 (Homo sapiens) (UniProt O43194).
T3 sequence (whole entry): T1 sequence (O43194 whole entry)
Kind of data set: Agonist activity at GPR39 in human islets assessed as 11.2 mM glucose-stimulated insulin secretion up to 10 uM after 1 hr.

The target of data set [6] is T3, G-protein coupled receptor 39 (Homo sapiens). Kind of data set: Agonist activity at GPR39 in human islets assessed as 2.8 mM glucose-stimulated insulin secretion up to 10 uM after 0.75 hrs.
Data set [7] shares this target. Kind of data set: Agonist activity at GPR39 in human HT-29 cells assessed as cAMP accumulation. Format: functional, cell-based.
The target is the same in data set [8]. Kind of data set: Agonist activity at GPR39 in human HT-29 cells assessed as intracellular Ca2+ mobilization after 72 hrs by FLIPR assay in presence of siRNA. The data set is classed as functional, cell-based.
Data set [9] addresses T1, G-protein coupled receptor 39. Kind of data set: Agonist activity at GPR39 in human HT-29 cells assessed as increase in intracellular Ca2+ mobilization after 72 hrs by FLIPR assay. Format: functional, cell-based.
Data set [10] addresses cGMP-inhibited 3',5'-cyclic phosphodiesterase 3B (Homo sapiens, UniProt Q13370). Kind of data set: Inhibition of PDE3B (unknown origin).
Data set [11] has as its target cGMP-inhibited 3',5'-cyclic phosphodiesterase 3A (Homo sapiens, UniProt Q14432). Kind of data set: Inhibition of PDE3a (unknown origin).
For data set [12], the target named is T3, G-protein coupled receptor 39 (Homo sapiens). Kind of data set: Agonist activity at recombinant human GPR39 expressed in CHO-K1 cells assessed as increase of Zn2+-induced cAMP production preincubated for 30 mins measured after 60 mins relative to Zn+2. Format: functional, cell-based.
For data set [13] the target is unchanged. Kind of data set: Agonist activity at recombinant human GPR39 expressed in CHO-K1 cells assessed as increase of Zn2+-induced intracellular Ca+2 mobilization after 1 hr by Fluo-4 No staining-based FLIPR assay relative to Zn+2. The data set is classed as cell-based.
The nature of data set [14]: Apparent permeability across MDCK cells. The data set is classed as ADME, cell-based, Canis lupus familiaris. As to conditions: dog.
Data set [15] deals with T3, G-protein coupled receptor 39 (Homo sapiens). Kind of data set: Agonist activity at GPR39 in human HT-29 cells assessed as cAMP accumulation up to 30 uM. Format: functional, cell-based.
Data set [16] shares this target. Kind of data set: Agonist activity at GPR39 in human HT-29 cells assessed as intracellular Ca2+ mobilization up to 30 uM after 72 hrs by FLIPR assay. The data set is classed as functional, cell-based.

Experimental findings from ChEMBL document CHEMBL3091456, “Chemical Probe Identification Platform for Orphan GPCRs Using Focused Compound Screening: GPR39 as a Case Example” (ACS Med Chem Lett, 2013) are described below.

Calls of active or inactive are those of the source. No cut-off for these calls is given here.

Sequence of cGMP-inhibited 3',5'-cyclic phosphodiesterase 3A (Q14432 whole entry): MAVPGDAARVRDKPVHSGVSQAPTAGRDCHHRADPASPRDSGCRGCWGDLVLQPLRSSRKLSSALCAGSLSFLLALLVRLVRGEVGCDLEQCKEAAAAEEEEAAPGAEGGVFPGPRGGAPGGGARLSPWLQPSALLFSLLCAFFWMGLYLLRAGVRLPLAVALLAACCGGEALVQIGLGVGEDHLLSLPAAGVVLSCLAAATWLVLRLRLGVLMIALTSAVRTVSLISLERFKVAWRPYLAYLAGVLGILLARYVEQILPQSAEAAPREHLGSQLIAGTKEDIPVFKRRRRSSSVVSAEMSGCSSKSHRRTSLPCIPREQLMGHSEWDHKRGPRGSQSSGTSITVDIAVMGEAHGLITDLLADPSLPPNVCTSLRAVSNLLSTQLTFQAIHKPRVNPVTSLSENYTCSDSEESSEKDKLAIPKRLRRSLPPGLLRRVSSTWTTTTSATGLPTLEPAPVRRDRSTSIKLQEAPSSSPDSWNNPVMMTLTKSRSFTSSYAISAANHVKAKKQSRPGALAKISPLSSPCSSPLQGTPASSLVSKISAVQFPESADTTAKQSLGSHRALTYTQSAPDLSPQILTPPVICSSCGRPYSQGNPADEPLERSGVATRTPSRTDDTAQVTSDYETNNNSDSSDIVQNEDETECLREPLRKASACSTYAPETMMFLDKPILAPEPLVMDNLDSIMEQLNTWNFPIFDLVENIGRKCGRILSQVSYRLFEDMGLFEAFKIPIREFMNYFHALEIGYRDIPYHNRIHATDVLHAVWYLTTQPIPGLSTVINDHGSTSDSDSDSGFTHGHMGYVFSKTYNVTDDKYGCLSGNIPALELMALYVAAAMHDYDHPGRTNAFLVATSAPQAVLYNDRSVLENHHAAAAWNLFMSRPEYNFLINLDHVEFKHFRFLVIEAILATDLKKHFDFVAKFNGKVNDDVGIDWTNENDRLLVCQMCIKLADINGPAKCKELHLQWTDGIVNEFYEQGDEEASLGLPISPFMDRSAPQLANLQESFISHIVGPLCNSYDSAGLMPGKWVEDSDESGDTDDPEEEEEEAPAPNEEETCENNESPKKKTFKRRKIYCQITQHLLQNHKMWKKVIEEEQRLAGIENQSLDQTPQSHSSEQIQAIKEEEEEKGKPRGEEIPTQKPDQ
Sequence of cGMP-inhibited 3',5'-cyclic phosphodiesterase 3B (Q13370 whole entry): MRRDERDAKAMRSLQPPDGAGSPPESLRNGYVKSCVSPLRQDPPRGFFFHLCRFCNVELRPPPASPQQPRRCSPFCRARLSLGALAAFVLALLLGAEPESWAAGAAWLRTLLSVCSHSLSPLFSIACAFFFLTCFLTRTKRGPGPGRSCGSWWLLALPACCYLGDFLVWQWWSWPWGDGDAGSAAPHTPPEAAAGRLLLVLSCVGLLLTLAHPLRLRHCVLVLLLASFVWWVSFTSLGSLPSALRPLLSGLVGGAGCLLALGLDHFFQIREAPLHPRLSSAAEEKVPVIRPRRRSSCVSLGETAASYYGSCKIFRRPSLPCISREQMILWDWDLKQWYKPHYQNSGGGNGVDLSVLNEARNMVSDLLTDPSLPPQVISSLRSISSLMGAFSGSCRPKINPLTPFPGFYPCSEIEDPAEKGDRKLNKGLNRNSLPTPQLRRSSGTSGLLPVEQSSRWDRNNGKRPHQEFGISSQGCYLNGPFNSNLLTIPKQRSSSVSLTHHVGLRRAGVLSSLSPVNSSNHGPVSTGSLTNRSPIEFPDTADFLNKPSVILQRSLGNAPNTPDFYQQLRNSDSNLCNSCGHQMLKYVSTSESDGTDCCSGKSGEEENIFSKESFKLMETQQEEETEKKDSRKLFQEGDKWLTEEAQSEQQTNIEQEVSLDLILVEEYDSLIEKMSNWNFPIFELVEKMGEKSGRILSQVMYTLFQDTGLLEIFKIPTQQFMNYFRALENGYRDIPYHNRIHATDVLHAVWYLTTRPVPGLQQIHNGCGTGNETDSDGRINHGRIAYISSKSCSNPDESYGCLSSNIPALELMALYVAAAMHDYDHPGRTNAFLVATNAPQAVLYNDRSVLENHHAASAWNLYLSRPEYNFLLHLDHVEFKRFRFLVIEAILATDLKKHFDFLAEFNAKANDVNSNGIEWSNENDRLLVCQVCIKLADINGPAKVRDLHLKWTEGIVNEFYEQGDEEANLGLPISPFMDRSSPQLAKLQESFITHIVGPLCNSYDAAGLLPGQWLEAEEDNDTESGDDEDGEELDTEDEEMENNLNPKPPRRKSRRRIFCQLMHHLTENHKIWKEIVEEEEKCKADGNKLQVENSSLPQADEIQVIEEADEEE

On to `CCc1ncc(CN2C[C@@H](C(=O)NCc3ccccc3Cl)[C@H](c3cccnc3)C2)[nH]1`, for which the apparent permeability coefficient (Papp) in data set [1] worked out at 0.8 ×10⁻⁶ cm/s. Moreover, the EC50 is 840 nM in data set [2] and 190 nM in data set [3].
As to `N#Cc1ccc(N2CCN(Cc3cn4cc(Cl)ccc4n3)CC2)nc1`, the result in [4], in data set [5], in [6], in data set [7] and in [8] was inactive. In addition, the EC50 in data set [9] worked out at 900 nM; in data set [2] it was 12000 nM; in data set [3] it was 56 nM. In addition, the IC50 in data set [10] was 24000 nM; in data set [11], 15000 nM. Moreover, the results for the Efficacy in data set [12] and in data set [13] were 100% and 76%, respectively. Also, the Papp in data set [14] turned out to be 7.6 ×10⁻⁶ cm/s.
As for `CCc1ncc(CN2C[C@H](C(=O)NCc3ccccc3Cl)[C@@H](c3cccnc3)C2)[nH]1`, the Papp in data set [1] was 1.2 ×10⁻⁶ cm/s. Further, the results for the concentration giving a half-maximal response (EC50) in data set [2] and in data set [3] were 310 nM and 320 nM, respectively.
As for `CCc1nc(CN2C[C@H](C(=O)NCc3ccccc3Cl)[C@@H](c3cccnc3)C2)c[nH]1`, the outcome in [15] and in [16] was inactive. The Efficacy in data set [12] amounted to 107%; in data set [13], 66%.
Turning to `CCc1nc(CN2C[C@@H](C(=O)NCc3ccccc3Cl)[C@H](c3cccnc3)C2)c[nH]1`, the outcome in [15] and in [16] was inactive. Further, the figures for the Efficacy in data set [12] and in data set [13] were 99% and 74%, respectively.
As for `COc1cccc([C@@H]2CCN(CCc3ccccc3)C[C@H]2C(=O)NCCc2ccccn2)c1` (racemic), in data set [1], the Papp was determined as 3.1 ×10⁻⁶ cm/s. The Efficacy in [12] came out at 107%; in data set [13], 82%. Besides, the EC50 in data set [2] is 4500 nM; in data set [3] it was 3100 nM.
